Measurements from patent publication US9493511B2, “Cyclosporin analogs” (Allergan, Inc., priority 2010, dated 2016).
Counter-ions that a name gives are not always drawn. Like-named read-outs stand apart in the source and are kept apart here. Square brackets hold non-standard residues; d marks the D form. Peptide text beside a SMILES is read from it. * marks the point of attachment. NMe(2-epi-Bmt) = C/C=C/C[C@@H](C)[C@@H](O)[C@@H](NC)C(=O)O; Ethyl(2-morpholino) = C1CN(CC*)CCO1; Ethyl(2-guanidino) = N=C(N)NCC*; Ala(3-yl) = N[C@@H](C*)C(=O)O; NMeL = CN[C@@H](CC(C)C)C(=O)O; dNMeL = CN[C@H](CC(C)C)C(=O)O; dNMeV = CN[C@@H](C(=O)O)C(C)C; dNMeC = CN[C@H](CS)C(=O)O; dAbu = CC[C@@H](N)C(=O)O; Et2NCH2CH2 = CCN(CC)CC*; CH2CH2COOH = O=C(O)CC*; X3 = c1cc(CC*)ccn1; X5 = CN1CCC(*)CC1; X6 = COC(=O)CC*; X1 = COC(=O)C*; X4 = CC(C)NCC*; X2 = CCCCC*

Tests used:
[1] = system: Spleen cells from C57BL/6 (responder) and BALB/c (stimulator) mice; experiment: Mixed lymphocyte reaction (MLR) assay; format: cell-based, mouse
human recombinant Cyp A = human recombinant Cyp A (Homo sapiens, UniProt P62937); experiment: biochemical
Calcineurin = Calcineurin (Homo sapiens, UniProt P63098+Q08209); experiment: biochemical

Chain of human recombinant Cyp A (P62937 whole entry): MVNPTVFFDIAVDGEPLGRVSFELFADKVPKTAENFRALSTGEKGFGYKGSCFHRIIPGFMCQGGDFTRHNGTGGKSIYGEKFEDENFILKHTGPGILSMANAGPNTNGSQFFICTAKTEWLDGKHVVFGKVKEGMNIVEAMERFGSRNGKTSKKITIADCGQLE

Row | Structure (SMILES) | IC50 ([1]; Mus musculus, read-out: MLR nM) [nM] | Ki (human recombinant Cyp A) [nM] | IC50 (Calcineurin) [nM] | IC50 ([1]; mouse spleen cells, five days, 3H-thymidine proliferation, read-out: MLR) [nM]
1 | C/C=C/C[C@@H](C)[C@@H](O)[C@@H]1C(=O)N[C@H](CC)C(=O)N(C)[C@H](CSCCN(CC)CC)C(=O)N(C)[C@@H](CC(C)C)C(=O)N[C@H](C(C)C)C(=O)N(C)[C@H](CC(C)C)C(=O)N[C@H](C)C(=O)N[C@@H](C)C(=O)N(C)[C@H](CC(C)C)C(=O)N(C)[C@H](CC(C)C)C(=O)N(C)[C@H](C(C)C)C(=O)N1C [Example 2, [(S)-2-Diethylaminoethylthiomethyl-Sar]^3 cyclosporin A] (cyclo(A[dNMeL][dNMeL][dNMeV][NMe(2-epi-Bmt)][dAbu][dNMeC](Et2NCH2CH2)[NMeL][dV][dNMeL][dA])) | 3500 | 2.4 | 3600 | 
2 | C/C=C/C[C@@H](C)[C@@H](O)[C@@H]1C(=O)N[C@H](CC)C(=O)N(C)[C@H](CSCCc2ccncc2)C(=O)N(C)[C@@H](CC(C)C)C(=O)N[C@H](C(C)C)C(=O)N(C)[C@H](CC(C)C)C(=O)N[C@H](C)C(=O)N[C@@H](C)C(=O)N(C)[C@H](CC(C)C)C(=O)N(C)[C@H](CC(C)C)C(=O)N(C)[C@H](C(C)C)C(=O)N1C [Example 3, [(S)-2-(4-pyridyl)ethylthiomethyl-Sar]^3 cyclosporin A] (cyclo(A[dNMeL][dNMeL][dNMeV][NMe(2-epi-Bmt)][dAbu][dNMeC](X3)[NMeL][dV][dNMeL][dA])) | 2000 | 4.3 | 11800 | 
3 | C/C=C/C[C@@H](C)[C@@H](O)[C@@H]1C(=O)N[C@H](CC)C(=O)N(C)[C@H](CSC)C(=O)N(C)[C@@H](CC(C)C)C(=O)N[C@H](C(C)C)C(=O)N(C)[C@H](CC(C)C)C(=O)N[C@H](C)C(=O)N[C@@H](C)C(=O)N(C)[C@H](CC(C)C)C(=O)N(C)[C@H](CC(C)C)C(=O)N(C)[C@H](C(C)C)C(=O)N1C [Example 4, [(S)-Methylthiomethyl-Sar]^3 cyclosporin A] (cyclo(A[dNMeL][dNMeL][dNMeV][NMe(2-epi-Bmt)][dAbu][dNMeC](Me)[NMeL][dV][dNMeL][dA])) |  | 6.9 | 2200 | 
4 | C/C=C/C[C@@H](C)[C@@H](O)[C@@H]1C(=O)N[C@H](CC)C(=O)N(C)[C@H](CSCCCCC)C(=O)N(C)[C@@H](CC(C)C)C(=O)N[C@H](C(C)C)C(=O)N(C)[C@H](CC(C)C)C(=O)N[C@H](C)C(=O)N[C@@H](C)C(=O)N(C)[C@H](CC(C)C)C(=O)N(C)[C@H](CC(C)C)C(=O)N(C)[C@H](C(C)C)C(=O)N1C [Example 5, [(S)-Pentylthiomethyl-Sar]^3 cyclosporin A] (cyclo(A[dNMeL][dNMeL][dNMeV][NMe(2-epi-Bmt)][dAbu][dNMeC](X2)[NMeL][dV][dNMeL][dA])) | 2700 | 2.3 | > 10000 | 
5 | C/C=C/C[C@@H](C)[C@@H](O)[C@@H]1C(=O)N[C@H](CC)C(=O)N(C)[C@H](CSC2CCN(C)CC2)C(=O)N(C)[C@@H](CC(C)C)C(=O)N[C@H](C(C)C)C(=O)N(C)[C@H](CC(C)C)C(=O)N[C@H](C)C(=O)N[C@@H](C)C(=O)N(C)[C@H](CC(C)C)C(=O)N(C)[C@H](CC(C)C)C(=O)N(C)[C@H](C(C)C)C(=O)N1C [Example 9] (cyclo(A[dNMeL][dNMeL][dNMeV][NMe(2-epi-Bmt)][dAbu][dNMeC](X5)[NMeL][dV][dNMeL][dA])) | 3800 | 4.8 | 3300 | 
6 | C/C=C/C[C@@H](C)[C@@H](O)[C@@H]1C(=O)N[C@H](CC)C(=O)N(C)[C@H](CSCCN2CCOCC2)C(=O)N(C)[C@@H](CC(C)C)C(=O)N[C@H](C(C)C)C(=O)N(C)[C@H](CC(C)C)C(=O)N[C@H](C)C(=O)N[C@@H](C)C(=O)N(C)[C@H](CC(C)C)C(=O)N(C)[C@H](CC(C)C)C(=O)N(C)[C@H](C(C)C)C(=O)N1C [Example 10, [(S)-2-(Morpholino)ethylthiomethyl-Sar]^3 cyclosporin A] (cyclo(A[dNMeL][dNMeL][dNMeV][NMe(2-epi-Bmt)][dAbu][dNMeC](Ethyl(2-morpholino))[NMeL][dV][dNMeL][dA])) |  | 3.9 | 4200 | 
7 | C/C=C/C[C@@H](C)[C@@H](O)[C@@H]1C(=O)N[C@H](CC)C(=O)N(C)[C@H](CSCC(=O)OC)C(=O)N(C)[C@@H](CC(C)C)C(=O)N[C@H](C(C)C)C(=O)N(C)[C@H](CC(C)C)C(=O)N[C@H](C)C(=O)N[C@@H](C)C(=O)N(C)[C@H](CC(C)C)C(=O)N(C)[C@H](CC(C)C)C(=O)N(C)[C@H](C(C)C)C(=O)N1C [Example 11, [(S)-Carbomethoxymethylthiomethyl-Sar]^3 cyclosporin A] (cyclo(A[dNMeL][dNMeL][dNMeV][NMe(2-epi-Bmt)][dAbu][dNMeC](X1)[NMeL][dV][dNMeL][dA])) | 19500 | 2.1 | 3900 | 
8 | C/C=C/C[C@@H](C)[C@@H](O)[C@@H]1C(=O)N[C@H](CC)C(=O)N(C)[C@H](CSCCC(=O)OC)C(=O)N(C)[C@@H](CC(C)C)C(=O)N[C@H](C(C)C)C(=O)N(C)[C@H](CC(C)C)C(=O)N[C@H](C)C(=O)N[C@@H](C)C(=O)N(C)[C@H](CC(C)C)C(=O)N(C)[C@H](CC(C)C)C(=O)N(C)[C@H](C(C)C)C(=O)N1C [Example 12, [(S)-Carbomethoxyethylthiomethyl-Sar]^3 cyclosporin A] (cyclo(A[dNMeL][dNMeL][dNMeV][NMe(2-epi-Bmt)][dAbu][dNMeC](X6)[NMeL][dV][dNMeL][dA])) |  | 2.7 | 9100 | 
9 | C/C=C/C[C@@H](C)[C@@H](O)[C@@H]1C(=O)N[C@H](CC)C(=O)N(C)[C@H](CSC(C)(C)[C@@H](N)C(=O)OC)C(=O)N(C)[C@@H](CC(C)C)C(=O)N[C@H](C(C)C)C(=O)N(C)[C@H](CC(C)C)C(=O)N[C@H](C)C(=O)N[C@@H](C)C(=O)N(C)[C@H](CC(C)C)C(=O)N(C)[C@H](CC(C)C)C(=O)N(C)[C@H](C(C)C)C(=O)N1C [Example 13, [(S)-{(S)-2-Amino-2-carbomethoxy-1,1-dimethyl-ethyl}thiomethyl-Sar]^3 cyclosporin A] |  | 9.3 | 4100 | 
10 | C/C=C/C[C@@H](C)[C@@H](O)[C@@H]1C(=O)N[C@H](CC)C(=O)N(C)[C@H](CSC[C@H](N)C(=O)O)C(=O)N(C)[C@@H](CC(C)C)C(=O)N[C@H](C(C)C)C(=O)N(C)[C@H](CC(C)C)C(=O)N[C@H](C)C(=O)N[C@@H](C)C(=O)N(C)[C@H](CC(C)C)C(=O)N(C)[C@H](CC(C)C)C(=O)N(C)[C@H](C(C)C)C(=O)N1C [Example 14, [(S)-{(R)-2-Amino-2-carbohydroxy-ethyl}thiomethyl-Sar]^3 cyclosporin A] (cyclo(A[dNMeL][dNMeL][dNMeV][NMe(2-epi-Bmt)][dAbu][dNMeC](Ala(3-yl))[NMeL][dV][dNMeL][dA])) |  |  | 7400 | 
11 | C/C=C/C[C@@H](C)[C@@H](O)[C@@H]1C(=O)N[C@H](CC)C(=O)N(C)[C@H](CSC(C)(C)[C@@H](N)C(=O)O)C(=O)N(C)[C@@H](CC(C)C)C(=O)N[C@H](C(C)C)C(=O)N(C)[C@H](CC(C)C)C(=O)N[C@H](C)C(=O)N[C@@H](C)C(=O)N(C)[C@H](CC(C)C)C(=O)N(C)[C@H](CC(C)C)C(=O)N(C)[C@H](C(C)C)C(=O)N1C [Example 16, [(S)-{(S)-2-Amino-2-carbohydroxy-1,1-dimethyl-ethyl}thiomethyl-Sar]^3 cyclosporin A] |  | 5.8 | 2700 | 
12 | C/C=C/C[C@@H](C)[C@@H](O)[C@@H]1C(=O)N[C@H](CC)C(=O)N(C)[C@H](CSCCC(=O)O)C(=O)N(C)[C@@H](CC(C)C)C(=O)N[C@H](C(C)C)C(=O)N(C)[C@H](CC(C)C)C(=O)N[C@H](C)C(=O)N[C@@H](C)C(=O)N(C)[C@H](CC(C)C)C(=O)N(C)[C@H](CC(C)C)C(=O)N(C)[C@H](C(C)C)C(=O)N1C [Example 17, [(S)-Carbohydroxyethylthiomethyl-Sar]^3 cyclosporin A] (cyclo(A[dNMeL][dNMeL][dNMeV][NMe(2-epi-Bmt)][dAbu][dNMeC](CH2CH2COOH)[NMeL][dV][dNMeL][dA])) |  | 2.8 | 17000 | 
13 | C/C=C/C[C@@H](C)[C@@H](O)[C@@H]1C(=O)N[C@H](CC)C(=O)N(C)[C@H](CSCCNC(C)C)C(=O)N(C)[C@@H](CC(C)C)C(=O)N[C@H](C(C)C)C(=O)N(C)[C@H](CC(C)C)C(=O)N[C@H](C)C(=O)N[C@@H](C)C(=O)N(C)[C@H](CC(C)C)C(=O)N(C)[C@H](CC(C)C)C(=O)N(C)[C@H](C(C)C)C(=O)N1C [Example 18, [(S)-2-Isopropylaminoethylthiomethyl-Sar]^3 cyclosporin A] (cyclo(A[dNMeL][dNMeL][dNMeV][NMe(2-epi-Bmt)][dAbu][dNMeC](X4)[NMeL][dV][dNMeL][dA])) |  | 5.2 | 4600 | 3300
14 | C/C=C/C[C@@H](C)[C@@H](O)[C@@H]1C(=O)N[C@H](CC)C(=O)N(C)[C@H](CSCCNC(=N)N)C(=O)N(C)[C@@H](CC(C)C)C(=O)N[C@H](C(C)C)C(=O)N(C)[C@H](CC(C)C)C(=O)N[C@H](C)C(=O)N[C@@H](C)C(=O)N(C)[C@H](CC(C)C)C(=O)N(C)[C@H](CC(C)C)C(=O)N(C)[C@H](C(C)C)C(=O)N1C [Example 19, [(S)-2-Guanidinoethyl-1-sulfanylmethyl-Sar]^3 cyclosporin A hydrochloride] (cyclo(A[dNMeL][dNMeL][dNMeV][NMe(2-epi-Bmt)][dAbu][dNMeC](Ethyl(2-guanidino))[NMeL][dV][dNMeL][dA])) |  | 6.8 | 3200 | 
